In brackets after ≈: the same amount, converted by molar mass. Read-outs that look alike come from different tables or passages of the source.
How the values were obtained:
[1] = test system: Streptococcus pneumoniae (6303); assay: In-vivo mouse protection assay (acute mouse protection test); parameters: species or system Swiss albino mice; details: 168 h, S. pneumoniae 6303, dosed 1 and 5 hours post infection, 7 days, read-out: ED50
Protocol: (§1) The acute mouse protection test is conducted on ten mice with each of three levels of drug. Mouse mortality is used to calculate an ED50 value, i.e., the dose of drug required to protect 50% of the test animals against death due to the inoculum challenge.
(§2) The acute mouse protection test is conducted on female, Swiss albino mice, 18-20 grams in weight. […] To check the potency of the inoculum, a titration of the indicated test organism is carried out in control animals. The treatment group of animals is dosed with the test compound at 1 and 5 hours post infection and observed for 7 days. The ED50 values are calculated using the mortality data collected.

[2] = test system: Staphylococcus aureus (NCTC 10649); assay: as above; parameters: species or system Swiss albino mice; details: S. aureus NCTC 10649, dosed 1 and 5 hours post infection, 7 days, read-out: ED50
Protocol: as §1, §2

[3] = test system: Streptococcus pyogenes C-203; assay: as above; parameters: species or system Swiss albino mice
Protocol: as §1, §2

[4] = test system: Haemophilus influenzae 751; assay: In vitro antibacterial activity, agar dilution MIC; format: cell-based; details: H. influenzae 751
How it was run: (§3)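 Test compound serially diluted in Brain Heart Infusion agar across twelve plates; inocula of 1:100 dilutions (1:10 for slow growers such as Streptococcus) applied by replicator. Plates incubated 20-24 h at 35°-37° C. MIC taken as lowest concentration giving no growth, slight haze or sparse isolated colonies versus drug-free control.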

[5] = test system: Staphylococcus aureus 45 RAR 2; assay: microbe, parasite or virus in culture; format: cell-based; details: 45RAR2
How it was run: as §3

[6] = NCTC10649, sc, 168 h, Subcutaneous
[7] = C203, 168 h, Oral, S. pyogenes C-203, dosed 1 and 5 hours post infection, 7 days, read-out: ED50

## CC[C@H]1OC(=O)[C@H](C)[C@@H](O[C@H]2C[C@@](C)(OC)[C@@H](O)[C@H](C)O2)[C@H](C)[C@@H](O[C@@H]2O[C@H](C)C[C@H](N(C)C)[C@H]2O)[C@](C)(O)C[C@@H](C)[C@@H](N2CCCCC2)[C@H](C)[C@@H](O)[C@]1(C)O [Example 5]
[1]; Oral
  ED50: 4.5 mg/kg
[1]; sc, Subcutaneous
  ED50: 0.4 mg/kg
[2]; NCTC10649, 168 h, Oral
  ED50: 41.9 mg/kg
[2]; [6]
  ED50: 7.5 mg/kg
[3]; [7]
  ED50: < 7.5 mg/kg
[3]; C203, sc, 168 h, Subcutaneous, S. pyogenes C-203, dosed 1 and 5 hours post infection, 7 days, read-out: ED50
  ED50: < 0.6 mg/kg
[4]
  MIC: 4 µg/mL (≈ 4.98 µM)
[5]
  MIC: 0.78 µg/mL (≈ 0.971 µM)

## CC[C@H]1OC(=O)[C@H](C)[C@@H](O[C@H]2C[C@@](C)(OC)[C@@H](O)[C@H](C)O2)[C@H](C)[C@@H](O[C@@H]2O[C@H](C)C[C@H](N(C)C)[C@H]2O)[C@](C)(O)C[C@@H](C)[C@@H](N2CCOCC2)[C@H](C)[C@@H](O)[C@]1(C)O [Example 19]
[1]; Oral
  ED50: 9.7 mg/kg
[1]; sc, Subcutaneous
  ED50: 1.1 mg/kg
[2]; NCTC10649, 168 h, Oral
  ED50: 44.8 mg/kg
[2]; [6]
  ED50: 15.5 mg/kg
[3]; [7]
  ED50: 9.5 mg/kg
[3]; C203, sc, 168 h
  ED50: 2.1 mg/kg
[4]
  MIC: 8 µg/mL (≈ 9.94 µM)
[5]
  MIC: 0.39 µg/mL (≈ 0.484 µM)

— patent US5075289A, “9-R-azacyclic erythromycin antibiotics” (priority 1988, dated 1991)
